For one test, the target named is CSF-1R kinase (Homo sapiens (Human), UniProt P07333). As to the kind of experiment: CSF-1R kinase assay (AlphaScreen). In kind it is biochemical. The note with it: class symbol. As to the method:
Inhibition of CSF-1R kinase activity by a test compound disclosed herein was estimated by AlphaScreen (PerkinElmer). […] Reactions were incubated at 30° C. for 45 min and stopped by adding 5 μL of 50 mM EDTA. Analysis of resulting product using an AlphaScreen kit, and counted with Enspire Alpha (PerkinElmer). […] The IC50 values of quinoxaline compounds of this invention against CSF-1R kinase were determined using the GraphPad Prism 5 software.

For the next test, the target named is c-KIT kinase (Homo sapiens (Human), UniProt P10721). As to the kind of experiment: c-KIT kinase assay (radiometric). In kind it is biochemical. The method, boiled down:
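Recombinant c-Kit (20 ng) with 2 μg Poly-(Glu4:Tyr1) in MOPS pH 7.0 buffer with MgCl2/MnCl2, 10 μM ATP plus [^33P]-ATP, 4% DMSO final, 60 min at 30° C. Stopped with phosphoric acid, filter-captured and scintillation counted; IC50 from curve fit.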

A further test has as its target FLT3 kinase (Homo sapiens (Human), UniProt P36888). As to the kind of experiment: FLT3 kinase assay (radiometric). The class given is biochemical. The note with it: bound. The method, boiled down:
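Recombinant FLT3 (5 ng) phosphorylating poly(Glu4:Tyr1) (2 μg) with 10 μM ATP plus [^33P]-ATP in MOPS pH 7.0 buffer, 4% DMSO final, 60 min at 30° C. Reaction stopped with phosphoric acid, filter-captured and scintillation-counted; IC50 derived from dose-response.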

Another test has as its target PDGFRβ kinase (Homo sapiens (Human), UniProt P09619). The experiment in a line: PDGFRβ kinase assay (radiometric). The class given is biochemical. Summed up: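 Radiometric assay: recombinant PDGFRβ with poly(Glu4:Tyr1) in MOPS pH 7.0 buffer containing Mg2+/Mn2+, 10 μM ATP plus [33P]-ATP, and compound at 4% DMSO final. Incubated 60 min at 30° C, stopped with phosphoric acid, filter-captured and scintillation-counted. IC50 from curve fitting.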

Test [1] deals with CSF-1-dependent M-NFS-60 mouse myeloid leukemia cell. As to the kind of experiment: M-NFS-60 cell proliferation assay (CellTiter-96). In kind it is cell-based. The note with it: Cytotoxicity, M-NFS-60 cells, 72 hours. The method, boiled down:
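CSF-1-dependent M-NFS-60 cells seeded at 2000 cells/well, settled overnight at 37 °C, 5% CO2, then exposed to increasing compound concentrations for 72 h. Viability read by CellTiter 96 AQueous One reagent (4 h) at 490 nm absorbance.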

In test [2] the test system is MV4-11 human acute myeloid leukemia cell with FLT3-ITD mutation. As to the kind of experiment: MV4-11 cell proliferation assay (CellTiter-96). The class given is cell-based. The conditions noted are these: Cytotoxicity, MV4-11 cells, 72 hours. The method, boiled down: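 MV4-11 cells (FLT3-ITD, FLT3-dependent growth) seeded at 6500 cells/well, incubated overnight at 37° C., 5% CO2, then exposed to increasing compound concentrations for 72 hours. Viability read by CellTiter96 AQueous One reagent (4 hours), absorbance at 490 nm.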

Test [3] deals with Kasumi-1 human acute myeloid leukemia cell with c-KIT N822K activating mutation. The experiment in a line: Kasumi-1 cell proliferation assay (CellTiter-96). In kind it is cell-based. The note with it: Cytotoxicity, Kasumi-1 cells, 72 hours. The method, boiled down: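 Kasumi-1 cells, seeded at 64000 cells/well and incubated overnight at 37 °C, were exposed to increasing compound concentrations for 72 h. Viability was measured by CellTiter96 AQueous One reagent (4 h) and absorbance at 490 nm.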

Test [4] relates to THP-1 human acute monocytic leukemia cell harboring NRAS G12D mutation. As to the kind of experiment: THP-1 cell proliferation assay (counter screen, CellTiter-96). The class given is cell-based. The conditions noted are these: Cytotoxicity, THP-1 cells (counter screen), 72 hours. The method, boiled down:
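THP-1 cells, RTK-independent owing to NRAS G12D, seeded at 5000/well, incubated overnight at 37 °C/5% CO2, then exposed to increasing compound concentrations for 72 h. CellTiter96 AQueous One reagent added for 4 h; viability from absorbance at 490 nm.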
(In general: Counterscreens check selectivity or assay interference.)

Test [5] concerns osteoclast precursors (osteoclast differentiation). As to the kind of experiment: Osteoclast tartrate-resistant acid phosphatase assay. In kind it is cell-based. The note with it: 168 h, at 1 μM treatment, 7 days, RANKL and M-CSF, read-out: inhibition activity against osteoclast differentiation. The method, boiled down:
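Differentiation inhibition was scored at 1 μM compound in duplicate, using supernatant TRAP activity read at 550 nm with an acid phosphatase kit.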

From patent publication US10689362B2, “Quinoxaline compounds as type III receptor tyrosine kinase inhibitors” (Development Center for Biotechnology, priority 2016, dated 2020) come the findings set out here.

Sequence of PDGFRβ kinase (P09619 33-1106): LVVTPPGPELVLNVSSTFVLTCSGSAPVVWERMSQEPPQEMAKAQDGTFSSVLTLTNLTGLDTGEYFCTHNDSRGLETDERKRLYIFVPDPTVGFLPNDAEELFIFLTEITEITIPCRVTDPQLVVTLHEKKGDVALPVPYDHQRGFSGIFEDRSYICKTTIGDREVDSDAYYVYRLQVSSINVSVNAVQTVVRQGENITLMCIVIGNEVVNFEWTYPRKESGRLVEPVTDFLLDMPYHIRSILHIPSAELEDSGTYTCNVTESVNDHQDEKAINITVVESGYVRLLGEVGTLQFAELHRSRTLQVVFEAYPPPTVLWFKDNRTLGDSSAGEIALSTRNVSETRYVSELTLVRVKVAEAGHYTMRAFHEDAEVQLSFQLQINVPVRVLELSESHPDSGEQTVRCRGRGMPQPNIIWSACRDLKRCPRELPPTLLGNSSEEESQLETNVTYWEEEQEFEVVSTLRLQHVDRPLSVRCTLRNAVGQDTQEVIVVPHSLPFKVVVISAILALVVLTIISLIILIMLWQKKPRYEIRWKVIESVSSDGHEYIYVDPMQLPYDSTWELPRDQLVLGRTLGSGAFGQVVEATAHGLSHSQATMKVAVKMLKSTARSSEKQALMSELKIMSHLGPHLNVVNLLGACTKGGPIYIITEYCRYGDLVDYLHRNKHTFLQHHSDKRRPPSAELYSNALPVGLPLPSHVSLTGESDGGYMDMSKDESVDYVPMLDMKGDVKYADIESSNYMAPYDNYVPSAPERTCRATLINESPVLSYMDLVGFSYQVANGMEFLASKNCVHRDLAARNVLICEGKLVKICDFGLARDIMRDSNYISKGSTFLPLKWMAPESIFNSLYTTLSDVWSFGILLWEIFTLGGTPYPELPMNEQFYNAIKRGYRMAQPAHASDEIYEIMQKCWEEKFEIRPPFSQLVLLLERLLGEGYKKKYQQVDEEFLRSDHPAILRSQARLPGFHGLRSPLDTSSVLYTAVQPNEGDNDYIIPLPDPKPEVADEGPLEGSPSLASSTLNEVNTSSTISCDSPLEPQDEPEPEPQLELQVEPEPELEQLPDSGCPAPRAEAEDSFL
Sequence of CSF-1R kinase (P07333 20-972): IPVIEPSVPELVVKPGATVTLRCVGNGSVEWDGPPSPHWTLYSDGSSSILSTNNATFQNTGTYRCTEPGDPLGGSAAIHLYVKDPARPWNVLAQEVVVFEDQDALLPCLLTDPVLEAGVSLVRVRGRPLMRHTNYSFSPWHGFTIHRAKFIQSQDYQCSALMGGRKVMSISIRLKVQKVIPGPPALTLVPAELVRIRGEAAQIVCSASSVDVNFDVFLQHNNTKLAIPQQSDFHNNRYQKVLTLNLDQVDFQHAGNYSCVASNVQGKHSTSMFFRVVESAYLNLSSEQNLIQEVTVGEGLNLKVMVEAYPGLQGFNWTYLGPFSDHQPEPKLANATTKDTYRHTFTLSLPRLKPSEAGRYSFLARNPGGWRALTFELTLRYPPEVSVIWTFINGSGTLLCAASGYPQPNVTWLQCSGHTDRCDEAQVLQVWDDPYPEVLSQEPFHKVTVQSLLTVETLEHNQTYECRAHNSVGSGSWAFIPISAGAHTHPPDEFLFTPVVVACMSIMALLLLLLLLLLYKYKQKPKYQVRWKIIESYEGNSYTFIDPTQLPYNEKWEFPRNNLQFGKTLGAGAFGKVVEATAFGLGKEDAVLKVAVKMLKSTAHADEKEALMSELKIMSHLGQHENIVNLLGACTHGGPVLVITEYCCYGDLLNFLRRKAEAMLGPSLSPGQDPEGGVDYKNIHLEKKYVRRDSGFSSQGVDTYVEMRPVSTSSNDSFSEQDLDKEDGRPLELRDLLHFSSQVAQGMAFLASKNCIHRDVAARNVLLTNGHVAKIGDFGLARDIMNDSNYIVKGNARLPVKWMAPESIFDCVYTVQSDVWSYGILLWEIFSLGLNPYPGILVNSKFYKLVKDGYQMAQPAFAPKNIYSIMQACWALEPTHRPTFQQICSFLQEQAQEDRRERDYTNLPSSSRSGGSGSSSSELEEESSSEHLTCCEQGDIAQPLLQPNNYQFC
Sequence of FLT3 kinase (P36888 27-993): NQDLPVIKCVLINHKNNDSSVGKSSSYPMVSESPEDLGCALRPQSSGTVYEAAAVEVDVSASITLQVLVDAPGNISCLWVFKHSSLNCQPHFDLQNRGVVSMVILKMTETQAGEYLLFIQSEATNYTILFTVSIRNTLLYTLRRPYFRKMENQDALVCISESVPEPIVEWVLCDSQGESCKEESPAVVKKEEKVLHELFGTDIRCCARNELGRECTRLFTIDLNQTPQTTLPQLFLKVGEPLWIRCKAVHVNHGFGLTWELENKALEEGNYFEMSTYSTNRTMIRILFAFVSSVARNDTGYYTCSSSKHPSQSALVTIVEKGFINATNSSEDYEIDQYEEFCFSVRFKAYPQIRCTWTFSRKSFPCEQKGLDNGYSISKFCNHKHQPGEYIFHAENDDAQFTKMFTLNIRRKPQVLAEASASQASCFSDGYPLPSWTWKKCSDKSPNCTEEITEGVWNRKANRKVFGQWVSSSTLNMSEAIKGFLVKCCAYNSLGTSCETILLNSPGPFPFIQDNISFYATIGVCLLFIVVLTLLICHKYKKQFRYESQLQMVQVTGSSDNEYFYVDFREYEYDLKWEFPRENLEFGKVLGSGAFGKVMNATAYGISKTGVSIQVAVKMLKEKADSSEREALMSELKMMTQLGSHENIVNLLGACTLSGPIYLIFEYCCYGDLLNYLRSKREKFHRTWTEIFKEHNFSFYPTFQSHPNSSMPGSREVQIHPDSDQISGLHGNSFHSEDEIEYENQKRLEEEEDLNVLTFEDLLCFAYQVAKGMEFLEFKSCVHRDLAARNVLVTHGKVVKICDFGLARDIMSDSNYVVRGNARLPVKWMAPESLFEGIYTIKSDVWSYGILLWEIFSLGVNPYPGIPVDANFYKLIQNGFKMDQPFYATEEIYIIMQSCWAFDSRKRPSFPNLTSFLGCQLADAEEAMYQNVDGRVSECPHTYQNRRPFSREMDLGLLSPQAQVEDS
Sequence of c-KIT kinase (P10721 26-976): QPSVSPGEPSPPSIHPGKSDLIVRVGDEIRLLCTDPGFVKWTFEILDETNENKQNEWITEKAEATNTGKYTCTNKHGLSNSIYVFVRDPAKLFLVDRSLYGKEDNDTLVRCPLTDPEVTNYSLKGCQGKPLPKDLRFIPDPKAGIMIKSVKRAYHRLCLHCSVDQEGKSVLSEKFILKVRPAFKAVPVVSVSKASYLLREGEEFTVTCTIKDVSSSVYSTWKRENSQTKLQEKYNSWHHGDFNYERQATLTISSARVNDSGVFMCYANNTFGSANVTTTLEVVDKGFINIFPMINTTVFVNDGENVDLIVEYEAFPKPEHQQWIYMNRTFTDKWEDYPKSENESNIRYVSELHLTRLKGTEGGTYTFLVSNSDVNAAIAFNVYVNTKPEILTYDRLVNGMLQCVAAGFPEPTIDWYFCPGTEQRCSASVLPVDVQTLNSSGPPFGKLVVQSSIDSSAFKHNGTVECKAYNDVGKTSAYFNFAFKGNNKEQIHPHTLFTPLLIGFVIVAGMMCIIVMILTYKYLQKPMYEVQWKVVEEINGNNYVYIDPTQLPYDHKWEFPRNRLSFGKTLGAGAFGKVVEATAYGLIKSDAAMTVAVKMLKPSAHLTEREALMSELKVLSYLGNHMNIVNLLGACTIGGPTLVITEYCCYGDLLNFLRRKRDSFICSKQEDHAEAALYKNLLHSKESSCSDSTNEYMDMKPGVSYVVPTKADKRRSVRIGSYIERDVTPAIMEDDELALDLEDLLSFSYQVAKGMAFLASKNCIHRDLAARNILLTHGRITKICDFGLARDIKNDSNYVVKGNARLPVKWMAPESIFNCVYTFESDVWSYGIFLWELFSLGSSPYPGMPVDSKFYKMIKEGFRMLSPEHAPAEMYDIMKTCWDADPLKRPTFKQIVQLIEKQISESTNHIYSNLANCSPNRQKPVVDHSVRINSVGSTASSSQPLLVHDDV

Usually IC50 stands for the point on the concentration scale where inhibition reaches its midpoint. The low end stands for greater potency, the high end for weaker potency. In general, inhibition refers to the change of the read-out against control, counted positive when it falls. `COc1cc(Nc2ccc3ncc(N4CCOCC4)nc3c2C#N)ccc1OCc1ccc(OC(F)(F)F)cc1` [Example 32, 6-((3-methoxy-4-((4-(trifluoromethoxy)benzyl)oxy)phenyl)amino)-3-morpholinoquinoxaline-5-carbonitrile]: the IC50 is under 0.1 µM on CSF-1R kinase; under 0.1 µM against c-KIT kinase (class symbol); over 1 µM on FLT3 kinase; 0.1 to 0.3 µM against PDGFRβ kinase (class symbol); under 0.3 µM in test [1]; 1 to 10 µM in test [2]. Besides, the figures for the half-maximal inhibitory concentration (IC50) in test [3] and in test [4] were 0.3 to 1 µM and over 10 µM, respectively. Moreover, the inhibition at 1 µM in test [5] is over 50%.

For the molecule `COc1ccc(COc2ccc(Nc3ccc4ncc(N5CCN(C)CC5)nc4c3C#N)cc2OC)cc1` [Example 31, 6-((3-methoxy-4-((4-methoxybenzyl)oxy)phenyl)amino)-3-(4-methylpiperazin-1-yl)quinoxaline-5-carbonitrile], the IC50 on CSF-1R kinase was under 0.1 µM; against c-KIT kinase (class symbol) it was under 0.1 µM; on FLT3 kinase, over 1 µM; against PDGFRβ kinase (class symbol), 0.3 to 1 µM; in [1], under 0.3 µM; in [2] it was 1 to 10 µM. For the same molecule, the IC50 in [3] is under 0.3 µM; in test [4] it was over 10 µM. Also, in test [5], the inhibition at 1 µM is over 50%.

As for `COc1cc(Nc2ccc3ncc(N4CCOCC4)nc3c2C#N)ccc1OCc1cccc(C#N)c1` [Example 65, 6-((4-((3-cyanobenzyl)oxy)-3-methoxyphenyl)amino)-3-morpholinoquinoxaline-5-carbonitrile], the IC50 against CSF-1R kinase was under 0.1 µM; against c-KIT kinase (class symbol), 0.1 to 0.3 µM; against FLT3 kinase it was over 1 µM; at PDGFRβ kinase (bound) it was over 1 µM; in test [1] it was under 0.3 µM; in test [2] it was over 10 µM. Besides, the IC50 in test [3] and in test [4] was over 10 µM each time. The inhibition at 1 µM in [5] was over 50%.

In the case of `COc1cc(Nc2ccc3ncc(N4CCOCC4)nc3c2C#N)ccc1OCc1ccc(CN(C)C)nc1` [Example 115, 6-((4-((6-((dimethylamino)methyl)pyridin-3-yl)methoxy)-3-methoxyphenyl)amino)-3-morpholinoquinoxaline-5-carbonitrile], the IC50 at CSF-1R kinase was under 0.1 µM; on c-KIT kinase (class symbol) it was 0.3 to 1 µM; on FLT3 kinase, over 1 µM; on PDGFRβ kinase (bound) it was over 1 µM; in test [1], under 0.3 µM; in test [2] it was 1 to 10 µM. For the same molecule, the IC50 was 1 to 10 µM in [3] and over 10 µM in test [4]. Moreover, the inhibition at 1 µM in [5] was over 50%.

As to `COc1ccc(COc2ccc(Nc3ccc4ncc(N5CCCC5)nc4c3C#N)cc2OC)cn1` [Example 79, 6-((3-methoxy-4-((6-methoxypyridin-3-yl)methoxy)phenyl)amino)-3-(pyrrolidin-1-yl)quinoxaline-5-carbonitrile], the IC50 against CSF-1R kinase is under 0.1 µM; at c-KIT kinase (class symbol), under 0.1 µM; against FLT3 kinase, over 1 µM; against PDGFRβ kinase (bound) it was over 1 µM; in [1], under 0.3 µM; in [2], 1 to 10 µM. Also, the IC50 in test [3] was 0.3 to 1 µM; in [4], over 10 µM. Further, in test [5], the inhibition at 1 µM was over 50%.

Consider `CNc1cnc2ccc(Nc3ccc(OCc4ccc(OC)cc4)c(OC)c3)c(C#N)c2n1` [Example 12, 6-((3-methoxy-4-((4-methoxybenzyl)oxy)phenyl)amino)-3-(methylamino)quinoxaline-5-carbonitrile], for which the IC50 was under 0.1 µM on CSF-1R kinase; under 0.1 µM on c-KIT kinase (class symbol); over 1 µM against FLT3 kinase; over 1 µM at PDGFRβ kinase (bound); under 0.3 µM in [1]; over 10 µM in test [2]. The IC50 in [3] is 0.3 to 1 µM; in test [4], over 10 µM. For the same molecule, in test [5], the inhibition at 1 µM is over 50%.

Regarding `COc1cc(Nc2ccc3ncc(N4CCOCC4)nc3c2C#N)ccc1OCc1ccc(C#N)cc1` [Example 64, 6-((4-((4-cyanobenzyl)oxy)-3-methoxyphenyl)amino)-3-morpholinoquinoxaline-5-carbonitrile], the IC50 on CSF-1R kinase is under 0.1 µM; on c-KIT kinase (class symbol) it was under 0.1 µM; against FLT3 kinase it was over 1 µM; on PDGFRβ kinase (bound), over 1 µM; in test [1], under 0.3 µM; in [2], 1 to 10 µM. Further, the IC50 in test [3] was 0.3 to 1 µM; in test [4] it was over 10 µM. Moreover, the inhibition at 1 µM in test [5] is over 50%.

As for `COc1cc(Nc2ccc3ncc(N4C[C@@H](C)O[C@@H](C)C4)nc3c2C#N)ccc1OCc1ccc(C)nc1` [Example 145, 3-((2S,6R)-2,6-dimethylmorpholino)-6-((3-methoxy-4-((6-methyl-pyridin-3-yl)methoxy)phenyl)amino)quinoxaline-5-carbonitrile], the IC50 was under 0.1 µM at CSF-1R kinase; 0.1 to 0.3 µM at c-KIT kinase (class symbol); over 1 µM against FLT3 kinase; over 1 µM against PDGFRβ kinase (bound); under 0.3 µM in [1]; 1 to 10 µM in [2]. Also, the results for the IC50 in test [3] and in test [4] were 0.3 to 1 µM and over 10 µM, respectively. For the same molecule, the inhibition at 1 µM in test [5] is over 50%.

In the case of `COc1ccc(COc2ccc(Nc3ccc4ncc(N5CCOCC5)nc4c3C#N)cc2OC)c(F)c1` [Example 94, 6-((4-((2-fluoro-4-methoxybenzyl)oxy)-3-methoxyphenyl)amino)-3-morpholinoquinoxaline-5-carbonitrile], the IC50 at CSF-1R kinase is under 0.1 µM; against c-KIT kinase (class symbol) it was under 0.1 µM; against FLT3 kinase, over 1 µM; at PDGFRβ kinase (bound) it was over 1 µM; in test [1], under 0.3 µM; in test [2] it was over 10 µM. Also, the results for the IC50 in [3] and in test [4] were 0.3 to 1 µM and over 10 µM, respectively. For the same molecule, in test [5], the inhibition at 1 µM was over 50%.

Consider `COc1ccc(COc2ccc(Nc3ccc4ncc(N5CCN(C)CC5)nc4c3C#N)cc2OC)cn1` [Example 95, 6-((3-methoxy-4-((6-methoxypyridin-3-yl)methoxy)phenyl)amino)-3-(4-methylpiperazin-1-yl)quinoxaline-5-carbonitrile], for which the IC50 is under 0.1 µM at CSF-1R kinase; 0.1 to 0.3 µM at c-KIT kinase (class symbol); over 1 µM at FLT3 kinase; over 1 µM at PDGFRβ kinase (bound); under 0.3 µM in [1]; 1 to 10 µM in [2]. The half-inhibitory concentration (IC50) in [3] fell in the range of 0.3 to 1 µM; in [4], 1 to 10 µM. The inhibition at 1 µM in [5] is over 50%.

Regarding `COc1ccc(COc2ccc(Nc3ccc4ncc(NC(C)C)nc4c3C#N)cc2OC)cc1` [Example 17, 3-(isopropylamino)-6-((3-methoxy-4-((4-methoxybenzyl)oxy)phenyl)amino)quinoxaline-5-carbonitrile], the IC50 was under 0.1 µM on CSF-1R kinase; under 0.1 µM at c-KIT kinase (class symbol); over 1 µM on FLT3 kinase; over 1 µM against PDGFRβ kinase (bound); under 0.3 µM in test [1]; 1 to 10 µM in [2]. The IC50 is 0.3 to 1 µM in [3] and over 10 µM in [4]. Moreover, in [5], the inhibition at 1 µM is over 50%.

On to `COc1ccc(COc2ncc(Nc3ccc4ncc(N5CCOCC5)nc4c3C#N)cc2OC)cn1` [Example 144, 6-((5-methoxy-6-((6-methoxypyridin-3-yl)methoxy)pyridin-3-yl)amino)-3-morpholinoquinoxaline-5-carbonitrile], for which the IC50 on CSF-1R kinase was under 0.1 µM; against c-KIT kinase (bound) it was over 1 µM; at FLT3 kinase, over 1 µM; against PDGFRβ kinase (bound), over 1 µM; in test [1] it was under 0.3 µM; in test [2] it was over 10 µM. The IC50 in [3] and in test [4] was over 10 µM in each case. For the same molecule, the inhibition at 1 µM in [5] is over 50%.
